As usually defined, the GI50 is the concentration at which growth is held to half of that of the control.

Experiment [1] has as its system U937. Nature of the experiment: In vitro growth inhibition (GI50), cell growth assay. It counts as cell-based, human. Particulars: U937 tumor cell line, 3 days. As for the experimental part:
After 3 days of incubation, cell growth was determined.
To determine the Growth Inhibition in the suspension cell lines, cell numbers were directly counted instead of using the SRB assay which determines the total cell protein. One day prior to the drug treatment, 40,000 cells per well were seeded into 24-well plates in a volume of 0.5 mL. Stock solutions were diluted with complete medium to twice the desired final concentrations, and then 0.5 mL aliquots of each dilution were added to the designated wells. After 3 days incubation, cell growth was determined by counting cell number using a coulter counter (Z-M, coulter). Cell counts were-also taken at time 0 and subtracted from the test results to give net growth.

Experiment [2] relates to UACC-257. Nature of the experiment: NCI growth inhibition screen, melanoma panel. The arrangement: key: = means equivalent activity; + means that it appears to be significantly better (i.e., by ˜2x); < means it appears to be less active than ET18OCH3 (˜2x); a combination like =/+ or </+ means that activity is dependent upon the isomer; a combination like =/+ or </+ means that activity is dependent upon the isomer. As to conditions: UACC-257, Melanoma; from GI50s. It counts as cell-based, human. As for the experimental part: (§1) Candidates deemed suitable for in vivo testing were then synthesized in large scale quantities and some of this material was sent to the NCI's Developmental Therapeutics Program for a battery of growth inhibitory studies against various human tumor cell lines (60 cell lines, 9 different panels). The remainder of the material was used to assess in vivo efficacy using murine tumor models. Additionally, studies were conducted on the lead candidates to discern mechanism of action with particular emphasis on these agents apoptotic ability as measured by caspase 3 activity. The details (materials and methods) for these various assays are described further in the following discussion.
(§2) Ten compounds were also sent to NCI's Drug Discovery Program for screening against numerous human tumor cell lines (9 panels total: renal ovarian, colon, CNS, non-small cell lung, leukemia, breast, melanoma, and prostate). The data are shown in FIGS. 2a-i which also include data regarding D- and L-ET-18-OCH3 (listed as L-EL and D-EL in the figures). Upon examining the data, one is struck by how 1R and 1a′S standout in comparison to the other compounds, especially for the renal, ovarian, colon, and CNS panels.

For experiment [3], the system named is LOX IMVI. The experiment is described as follows: NCI growth inhibition screen, melanoma panel. It counts as cell-based, human. The arrangement: key: = means equivalent activity; + means that it appears to be significantly better (i.e., by ˜2x); < means it appears to be less active than ET18OCH3 (˜2x); a combination like =/+ or </+ means that activity is dependent upon the isomer; a combination like =/+ or </+ means that activity is dependent upon the isomer. Particulars: from GI50s. As for the experimental part:
as §1, §2

Experiment [4] deals with SK-MEL-28. The experiment is described as follows: NCI growth inhibition screen, melanoma panel. As to conditions: SK-MEL-28, Melanoma; from GI50s. The experiment is classed as cell-based, human. Further details: key: = means equivalent activity; + means that it appears to be significantly better (i.e., by ˜2x); < means it appears to be less active than ET18OCH3 (˜2x); a combination like =/+ or </+ means that activity is dependent upon the isomer; a combination like =/+ or </+ means that activity is dependent upon the isomer. As for the experimental part:
as §1, §2

Experiment [5] deals with UACC62. Nature of the experiment: NCI growth inhibition screen, melanoma panel. It counts as cell-based, human. Further details: key: = means equivalent activity; + means that it appears to be significantly better (i.e., by ˜2x); < means it appears to be less active than ET18OCH3 (˜2x); a combination like =/+ or </+ means that activity is dependent upon the isomer; a combination like =/+ or </+ means that activity is dependent upon the isomer. Particulars: from GI50s. As for the experimental part:
as §1, §2

Experiment [6] deals with M14. Nature of the experiment: NCI growth inhibition screen, melanoma panel. It counts as cell-based, human. The arrangement: key: = means equivalent activity; + means that it appears to be significantly better (i.e., by ˜2x); < means it appears to be less active than ET18OCH3 (˜2x); a combination like =/+ or </+ means that activity is dependent upon the isomer; a combination like =/+ or </+ means that activity is dependent upon the isomer. Particulars: from GI50s. As for the experimental part:
as §1, §2

For experiment [7], the system named is SK-MEL-5. Nature of the experiment: NCI growth inhibition screen, melanoma panel. It counts as cell-based, human. The arrangement: key: = means equivalent activity; + means that it appears to be significantly better (i.e., by ˜2x); < means it appears to be less active than ET18OCH3 (˜2x); a combination like =/+ or </+ means that activity is dependent upon the isomer; a combination like =/+ or </+ means that activity is dependent upon the isomer. As to conditions: SK-MEL-5, Melanoma; from GI50s. As for the experimental part:
as §1, §2

Experiment [8] relates to DEVDase activity (Caspase 3) in Jurkat T cells. The experiment is described as follows: DEVDase activity in Jurkat T cells. The experiment is classed as cell-based. Particulars: for % L-ET18OCH3 (DEVDase, 6 hrs): Jurkat T cells; for DEVDase activity compared to ET-18-OCH3 (in words): Jurkat T cell line. As for the experimental part: Suspension cells were seeded at density 3.2×10^5 cells per mL in RPMI-1640 medium (Bio-Whittaker) supplemented with 10% heat inactivated FBS (Bio-Whittaker). Cells were pre-incubated overnight prior to treatment with the ether lipid compounds of the invention. At treatment time cell density was 5×10^5 cells per mL. Cells were incubated with the ether lipid compounds of the invention for various periods of time, usually 6 hours. Cells were collected, washed with 1×DPBS and resuspended in 110 μl of Buffer A (10 mM BEPES-KOH, pH 7.4, 2 mM EDTA, 0.1% CHAPS, 5 mM DTT, 1:100 dilution of protease inhibitors cocktail (Sigma)-DTT and protease inhibitors should be added just before use). After 10 min incubation on ice in order to lyse cells, samples were frozen on dry ice/ethanol and kept at −20° C. until analysis.
At the time of analysis of DEVDase activity frozen pellets were kept on ice until thawed and after vigorous vortexing samples were centrifuged at 14,000 rpm for 6 min.; Supernatant was transferred into another tube and 2 μl, in triplicates, were used for protein measurement using Bradford reagent (Bio-Rad).
Measurement of DEVDase activity was carried out in 100 μl volume, where 10 μg of protein was delivered in 50 μl of Buffer A and 40 μM of substrate Ac-DEVD-AMC was also delivered in 50 μl of Buffer A. All measurements were done in triplicates. Reaction was carried out for 1 hour and generation of fluorescent product of reaction (aminomethylcoumarin) was measured by reading fluorescence at 1em 460 nm (1ex 360 nm). Changes in DEVDase activity were calculated after subtraction of background fluorescence of substrate incubated without proteins, and were expressed as percent of control (DEVDase activity in untreated cells). Average of DEVDase activity, calculated from few independent experiments, was used to calculate percent of L-ether lipid-induced DEVDase activity.

The compound `CCCCCCCCCCCCCCCCCCOC[C@@H](COP(=O)([O-])OCC[N+](C)(C)C)OS(C)(=O)=O` [1a′S] gave a GI50 in experiment [1] of 1400 nM. The “Performance as compared to ET-18-O—CH3” value in experiment [2] was 0; in experiment [3] it was 0; in experiment [4], “</=”; in experiment [5], 64; in experiment [6], 0; in experiment [7], 0. Also, the entries for the “% L-ET18OCH3 (DEVDase, 6 hrs)” value in experiment [8] (10 μM ether lipid), in experiment [8] (20 μM ether lipid) and in experiment [8] (30 μM ether lipid) were 58.9 ± 9.1%, 55.5 ± 8.3% and 61.3 ± 9.1%, respectively. In addition, the “DEVDase activity compared to ET-18-OCH3 (in words)” value in experiment [8] was “less DEVDase activity than ET-18-OCH3”.
Compound `CCCCCCCCCCCCCCCCCCOCC(COP(=O)([O-])OCC[N+](C)(C)C)OS(C)(=O)=O` (centres unmarked) [Compound 1aR] gave a 50% growth inhibitory concentration (GI50) in experiment [1] of 1400 nM. Further, the “Performance as compared to ET-18-O—CH3” value is “=” in experiment [2]; “=” in experiment [3]; “=/+” in experiment [4]; “+” in experiment [5]; “=” in experiment [6]; “=” in experiment [7]. In addition, the “% L-ET18OCH3 (DEVDase, 6 hrs)” value was 56.6 ± 8.3% in experiment [8] (10 μM ether lipid), 52.4 ± 8.6% in experiment [8] (20 μM ether lipid) and 51.6 ± 8.1% in experiment [8] (30 μM ether lipid). For the same compound, in experiment [8], the “DEVDase activity compared to ET-18-OCH3 (in words)” value was “less DEVDase activity than ET-18-OCH3”.
Consider `CCCCCCCCCCCCCCCCCCOCC(COP(=O)([O-])OCC[N+](C)(C)C)OC` [D-ET18OCH3, 1-O-octadecyl-2-O-methyl-glycerophosphocholine, reference compound], for which the GI50 in experiment [1] was found to be 1400 nM. Also, the “% L-ET18OCH3 (DEVDase, 6 hrs)” value is 79.3 ± 9.7% in experiment [8] (10 μM ether lipid), 89.2 ± 12.2% in experiment [8] (20 μM ether lipid) and 92.1 ± 11.8% in experiment [8] (30 μM ether lipid).

Values taken from patent publication US20060122153A1, “Antineoplastic ether lipid compounds with modifications at the sn-2 carbon” (priority 2003, published 2006).
